Test results reported in patent US11773062B2, “Deuterated compounds” (priority 2021, dated 2023).

What was measured:
[1] = Human liver mitochondrial fraction intrinsic clearance of SPL026, SPL028i, SPL028iii, SPL028viii; format: in vitro ADME; conditions: for Intrinsic Clearance / half-life: 0.5 mg/mL human liver mitochondrial fraction (Table 10)
Text: (§1) Human Liver Mitochondrial (HLMt) fractions contain high quantities of MAO enzymes and therefore, provide a useful tool to measure the clearance of MAO substrates.

[2] = biological target: T1, CYP2C8 (Homo sapiens, UniProt P10632); experiment: in vitro; conditions: human, recombinant enzyme, pH 7.4
T1 sequence (P10632 1-490): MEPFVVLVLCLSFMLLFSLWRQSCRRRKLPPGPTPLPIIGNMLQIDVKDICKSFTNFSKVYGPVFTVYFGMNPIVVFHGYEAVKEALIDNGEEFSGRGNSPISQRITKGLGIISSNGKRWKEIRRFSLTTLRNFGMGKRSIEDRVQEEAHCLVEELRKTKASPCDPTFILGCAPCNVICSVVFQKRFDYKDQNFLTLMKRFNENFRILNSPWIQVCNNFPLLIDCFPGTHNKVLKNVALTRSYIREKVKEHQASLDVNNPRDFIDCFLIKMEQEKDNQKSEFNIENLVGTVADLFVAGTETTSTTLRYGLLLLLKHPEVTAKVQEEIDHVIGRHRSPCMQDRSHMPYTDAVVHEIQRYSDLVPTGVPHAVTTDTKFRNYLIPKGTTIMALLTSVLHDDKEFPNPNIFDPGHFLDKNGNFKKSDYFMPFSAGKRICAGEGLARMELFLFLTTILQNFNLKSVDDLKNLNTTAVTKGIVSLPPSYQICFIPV
Description: (§2) Samples were taken at predetermined time points.
(§3) Samples were then centrifuged at −4° C.
(§4) Positive control markers are as specified in Table 11.

[3] = tested on: mouse (male CD-1) hepatocytes; experiment: In vitro mouse hepatocytic intrinsic clearance; conditions: mouse CD-1 hepatocytes 0.367 million cells/mL, 5 μM (Table 8)
[4] = tested on: human (mixed gender) hepatocytes; experiment: In vitro intrinsic clearance in human hepatocytes with and without MAO-A/B inhibitor combination (first experiment); conditions: for % change in half-life, MAO inhibitors vs no inhibitors / % change in intrinsic clearance, MAO inhibitors vs no inhibitors: human hepatocytes (Table 5)
Description: Standard final incubation conditions are 1 μM compound in buffer containing nominally ˜0.5 million viable cells/mL, ˜0.9% (v/v) acetonitrile (MeCN) and ˜0.1% (v/v) DMSO (specific assay concentrations outlined above, section 2).
Samples are then centrifuged at 4° C.

[5] = In vitro mouse hepatocytic intrinsic clearance; conditions: male, CD-1, mouse, hepatocytes
[6] = biological target: CYP2C9 (Homo sapiens, UniProt P11712); experiment: in vitro; conditions: human, recombinant enzyme, pH 7.4
Sequence of CYP2C9 (P11712 whole entry): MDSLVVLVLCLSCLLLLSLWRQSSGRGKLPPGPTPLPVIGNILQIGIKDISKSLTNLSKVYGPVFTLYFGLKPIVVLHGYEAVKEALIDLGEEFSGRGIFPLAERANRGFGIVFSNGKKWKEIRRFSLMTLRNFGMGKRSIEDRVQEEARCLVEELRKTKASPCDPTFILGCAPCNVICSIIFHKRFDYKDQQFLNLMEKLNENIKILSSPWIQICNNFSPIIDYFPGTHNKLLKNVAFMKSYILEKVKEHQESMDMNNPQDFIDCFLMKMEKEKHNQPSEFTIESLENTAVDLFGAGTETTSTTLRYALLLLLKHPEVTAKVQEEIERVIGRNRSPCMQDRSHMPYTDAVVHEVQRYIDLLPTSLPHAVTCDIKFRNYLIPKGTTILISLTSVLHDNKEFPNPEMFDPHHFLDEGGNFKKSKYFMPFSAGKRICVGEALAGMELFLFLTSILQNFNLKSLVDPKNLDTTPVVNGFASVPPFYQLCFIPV
Description: as §2, §3, §4

[7] = biological target: CYP3A4 (Homo sapiens, UniProt P08684); experiment: in vitro; conditions: human, recombinant enzyme, pH 7.4
Sequence of CYP3A4 (P08684 whole entry): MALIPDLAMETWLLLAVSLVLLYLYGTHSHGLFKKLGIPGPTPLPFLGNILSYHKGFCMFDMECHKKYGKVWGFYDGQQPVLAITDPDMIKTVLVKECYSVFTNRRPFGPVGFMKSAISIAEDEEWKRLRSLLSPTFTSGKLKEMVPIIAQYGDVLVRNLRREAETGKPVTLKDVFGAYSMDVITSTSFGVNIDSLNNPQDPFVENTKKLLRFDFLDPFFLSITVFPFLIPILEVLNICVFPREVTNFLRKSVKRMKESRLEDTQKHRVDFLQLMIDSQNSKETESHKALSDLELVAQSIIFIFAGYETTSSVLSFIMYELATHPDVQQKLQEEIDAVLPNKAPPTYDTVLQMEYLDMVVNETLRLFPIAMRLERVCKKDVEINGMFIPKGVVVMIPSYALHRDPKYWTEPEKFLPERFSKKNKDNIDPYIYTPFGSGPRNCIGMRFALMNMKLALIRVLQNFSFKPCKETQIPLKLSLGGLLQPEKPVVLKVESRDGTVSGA
Description: as §2, §3, §4

[8] = biological target: CYP3A5 (Homo sapiens, UniProt P20815); experiment: in vitro; conditions: human, recombinant enzyme, pH 7.4
Sequence of CYP3A5 (P20815 whole entry): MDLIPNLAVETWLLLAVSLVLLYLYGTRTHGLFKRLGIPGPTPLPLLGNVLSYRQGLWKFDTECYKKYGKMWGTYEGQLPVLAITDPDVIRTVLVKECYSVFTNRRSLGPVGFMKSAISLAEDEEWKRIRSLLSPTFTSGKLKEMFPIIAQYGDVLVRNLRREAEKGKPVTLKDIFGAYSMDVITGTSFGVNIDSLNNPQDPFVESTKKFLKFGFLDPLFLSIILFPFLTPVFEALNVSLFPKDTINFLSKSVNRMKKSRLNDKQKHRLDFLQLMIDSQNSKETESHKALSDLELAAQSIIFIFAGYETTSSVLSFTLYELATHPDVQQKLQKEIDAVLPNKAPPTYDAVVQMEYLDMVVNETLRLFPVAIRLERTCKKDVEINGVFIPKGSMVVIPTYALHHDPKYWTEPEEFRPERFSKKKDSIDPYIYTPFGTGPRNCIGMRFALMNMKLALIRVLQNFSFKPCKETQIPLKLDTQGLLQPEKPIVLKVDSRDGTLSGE
Description: as §2, §3, §4

[9] = Human liver mitochondrial fraction intrinsic clearance of SPL026 with/without MAO-A and MAO-B inhibitors; format: in vitro ADME
Text: as §1

[10] = biological target: T2, CYP1A2 (Homo sapiens, UniProt P05177); experiment: in vitro; conditions: human, recombinant enzyme, pH 7.4
T2 sequence (P05177 1-516): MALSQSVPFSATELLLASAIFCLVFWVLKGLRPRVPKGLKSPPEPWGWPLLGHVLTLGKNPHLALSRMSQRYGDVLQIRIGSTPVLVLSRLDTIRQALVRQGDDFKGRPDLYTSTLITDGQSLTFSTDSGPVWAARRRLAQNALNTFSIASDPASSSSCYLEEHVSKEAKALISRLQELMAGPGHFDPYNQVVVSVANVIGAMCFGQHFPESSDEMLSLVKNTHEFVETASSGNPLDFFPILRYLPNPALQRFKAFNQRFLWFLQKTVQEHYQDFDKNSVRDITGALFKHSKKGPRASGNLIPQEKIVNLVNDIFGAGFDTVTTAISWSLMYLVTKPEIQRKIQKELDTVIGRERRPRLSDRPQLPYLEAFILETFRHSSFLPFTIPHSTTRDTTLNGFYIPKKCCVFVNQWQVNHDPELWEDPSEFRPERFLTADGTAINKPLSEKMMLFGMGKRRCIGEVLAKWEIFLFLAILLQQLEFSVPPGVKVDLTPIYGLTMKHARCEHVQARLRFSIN
Description: as §2, §3, §4

[11] = biological target: CYP2C19 (Homo sapiens, UniProt P33261); experiment: in vitro; conditions: human, recombinant enzyme, pH 7.4
Sequence of CYP2C19 (P33261 whole entry): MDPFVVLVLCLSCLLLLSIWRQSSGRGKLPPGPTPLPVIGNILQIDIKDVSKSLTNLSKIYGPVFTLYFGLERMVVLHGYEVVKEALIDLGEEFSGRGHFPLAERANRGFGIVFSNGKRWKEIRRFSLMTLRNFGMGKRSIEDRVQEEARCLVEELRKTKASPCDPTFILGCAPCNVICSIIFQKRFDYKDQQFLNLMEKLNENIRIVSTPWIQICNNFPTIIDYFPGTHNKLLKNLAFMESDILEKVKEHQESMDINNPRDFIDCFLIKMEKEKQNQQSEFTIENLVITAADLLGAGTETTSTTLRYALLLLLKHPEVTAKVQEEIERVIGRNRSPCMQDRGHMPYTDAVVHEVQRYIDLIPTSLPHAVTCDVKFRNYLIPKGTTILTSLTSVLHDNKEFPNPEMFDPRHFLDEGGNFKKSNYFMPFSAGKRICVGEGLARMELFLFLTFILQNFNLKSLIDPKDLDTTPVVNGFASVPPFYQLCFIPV
Description: as §2, §3, §4

[12] = human hepatocytes, with 100 nM clorgyline + 100 nM deprenyl/selegiline (Table 3)
[13] = human hepatocytes, with MAO-A/B inhibitor combination (Table 5)
[14] = human hepatocytes, without MAO-A/B inhibitor combination (Table 5)
[15] = human hepatocytes, with MAO-A/B inhibitors (Table 4; unit given only in Table 5)
[16] = 0.5 mg/mL human liver mitochondrial fraction, DMSO Vehicle (no inhibitor)
[17] = human hepatocytes, without MAO inhibitors (Table 4; unit given only in Table 5)

SMILES	Intrinsic Clearance [1] [μL/min/mg protein]	w Half-life [3] [min]	w Intrinsic clearance [3] [μL/min/million cells]	% change in half-life, MAO inhibitors vs no inhibitors [4] [%]	% change in intrinsic clearance, MAO inhibitors vs no inhibitors [4] [%]	Intrinsic clearance, with inhibitors [4, 12] [μL/min/million cells]	Intrinsic clearance, with inhibitors [4, 13] [μL/min/million cells]	Intrinsic clearance, without inhibitors [4, 14] [μL/min/million cells]	half-life at 5 μM [5] [min]	hepatocyte CLint at 5 μM [5] [µL/min/1e6 cells]	further results
[2H]C([2H])([2H])N(C([2H])([2H])[2H])C([2H])([2H])Cc1c[nH]c2ccccc12 [SPL028viii, α,α,bis-deuterio-N,N-hexadeuterio-dimethyltryptamine]	10.9										
CC(C)(O)c1ccccc1CC[C@@H](SCC1(CC(=O)O)CC1)c1cccc(/C=C/c2ccc3ccc(Cl)cc3n2)c1 [Montelukast, reference compound]											half-life [2]: 62 min; intrinsic clearance, CYP isoform 2C8 [2]: 122 μL/min/nmol CYP
[2H]C([2H])(Cc1c[nH]c2ccccc12)N(C)C [SPL028v, α,α,-bis-deuterium-N,N-dimethyltryptamine]		16.1	117.7	11.47	−15.56	9.51	9.51	10.99			
[2H]C([2H])(Cc1c[nH]c2ccccc12)N(C)C [SPL028iii, α,α,-bis-deuterium-N,N-dimethyltryptamine]	15.0	17.9	106.2	25.93	−35.65	6.90	6.9	9.36			half-life [1]: 31.1 min; Half-life, with inhibitors [4, 13]: 189.6 min; Half-life, with inhibitors [4, 15]: 189.60 min
COc1ccc([C@@H]2Sc3ccccc3N(CCN(C)C)C(=O)[C@@H]2OC(C)=O)cc1 [Diltiazem, reference compound]									< 3	> 460	
O=C(O)Cc1ccccc1Nc1c(Cl)cccc1Cl [Diclofenac, reference compound]									34.1	57.7	half-life [6]: 1 min; intrinsic clearance, CYP isoform 2C9 [6]: 4731 μL/min/nmol CYP
Cc1ncc2n1-c1ccc(Cl)cc1C(c1ccccc1F)=NC2 [Midazolam, reference compound]											half-life [7]: 5 min; intrinsic clearance, CYP isoform 3A4 [7]: 1369 μL/min/nmol CYP; half-life [8]: 11 min; intrinsic clearance, CYP isoform 3A5 [8]: 623 μL/min/nmol CYP
NCc1ccccc1 [Benzylamine, reference compound]	60.0			>83.41	<−450	<3.0	<3.0	16.7	14.3	134	half-life [9, 16]: 30.4 min; half-life ([9]; human liver mitochondrial fraction, Deprenyl (MAO-B inhibitor) 100 nM): >420.2 min; half-life [1]: 23.2 min; fold increase in intrinsic clearance, human liver mitochondria compared to hepatocyte fraction ([1]; positive controls): ~3.6 fold; Half-life, with inhibitors [4, 13]: 460 min; Half-life, with inhibitors [4, 15]: 460.00 min; Half-life, without inhibitors [4, 17]: 76.30 min; Half-life, without inhibitors [4, 14]: 76.3 min
Nc1c2c(nc3ccccc13)CCCC2 [Tacrine, reference compound]											half-life [10]: 37 min; intrinsic clearance, CYP isoform 1A2 [10]: 189 μL/min/nmol CYP
[2H]C([2H])(Cc1c[nH]c2ccccc12)N(C)C [SPL028vi, α,α,-bis-deuterium-N,N-dimethyltryptamine]		16.6	114.0	20.55	−26.41	10.79	10.79	13.64			Half-life, without inhibitors [4, 17]: 95.04 min; Half-life, without inhibitors [4, 14]: 95.04 min
CC(C)NCC(O)COc1cccc2ccccc12 (stereo not shown) [Propranolol, reference compound]											half-life [11]: 12 min
NCCc1c[nH]c2ccc(O)cc12 [Serotonin, reference compound]	151.0			73.75	−282.18	10.10	10.1	38.6	22.8	83	half-life [9, 16]: 11.1 min; half-life ([9]; human liver mitochondrial fraction, Clorgyline (MAO-A inhibitor) 100 nM): >420.2 min; half-life [1]: 9.2 min; Half-life, without inhibitors [4, 17]: 33.00 min; Half-life, without inhibitors [4, 14]: 33 min
[2H]C([2H])(Cc1c[nH]c2ccccc12)N(C)C [SPL028iv, α,α,-bis-deuterium-N,N-dimethyltryptamine]		17.7	106.9	31.74	−49.33	7.46	7.46	11.14			change in intrinsic clearance with the inclusion of MAO inhibitors ([4]; human hepatocytes): 49%; Half-life, with inhibitors [4, 13]: 171.17 min; Half-life, with inhibitors [4, 15]: 171.17 min
